According to US20250353873A1, “COMPOUNDS AND METHODS FOR MODULATING APOE EXPRESSION” (Ionis Pharmaceuticals, Inc., priority 2024, published 2025):
Strand notation (5' to 3'): a small letter for the sugar, then the base; units joined by * are phosphorothioate-linked, units joined directly phosphodiester-linked; [ ] holds rarer units or linkages, { } end groups; capitals alone tell only the bases. [ms] = mesyl phosphoramidate linkage; e = 2'-O-(2-methoxyethyl) (MOE); [5mC] = 5-methylcytosine; d = 2'-deoxy (DNA)

Tests used:
[1] = test system: human APOE RNA; experiment: Activity in APOE 1549 knock-in mice, single ICV bolus, 4 weeks (Example 8); assay type: in vivo; details: n = 2, single ICV bolus of 300 μg, four weeks post treatment, Table 18
Method: Modified oligonucleotides described above were tested in the 1549 APOE knock-in mouse model described above.
APOE knock-in mice were divided into groups of either 2 or 6 mice each as described in the tables below. Each mouse received a single intracerebroventricular (ICV) bolus of 300 μg of modified oligonucleotide. A group of either 3 or 6 mice received a single ICV bolus with PBS as a negative control.
Four weeks post treatment, mice were sacrificed and RNA was extracted from cortical brain tissue and spinal cord for quantitative real-time RT-PCR analysis of RNA expression of APOE using primer probe set RTS3073 (described herein above). APOE RNA levels were normalized to mouse Ppia. Mouse Ppia was amplified using primer probe set m_cyclo24 (described herein above). Results are presented as percent human APOE RNA relative to the amount of human APOE RNA in PBS treated animals, (% control). Each experiment is identified in separate tables below.

[2] = test system: human APOE RNA; experiment: Dose-dependent inhibition of human APOE RNA in HepG2 cells, electroporation, 24 hours (Example 6); assay type: cell-based
Summary of the method: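 HepG2 cells, 50,000 per well, electroporated with various oligonucleotide concentrations. APOE RNA measured with primer probe set RTS3073, normalized to GAPDH (RTS104), expressed as % of untreated control; IC50 then calculated.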

[3] = test system: human APOE RNA; experiment: Duration of action study in APOE C57BL/6NTac-Apoeem7250 knock-in mice (Example 16); assay type: in vivo; details: 300 μg ICV
Summary of the method: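 Knock-in mice (2-4 per group) received a single ICV bolus of 300 μg oligonucleotide or PBS. At various timepoints, cortex and spinal cord human APOE RNA was measured by RT-qPCR (RTS3073), normalized to mouse Ppia and expressed as % of PBS control.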

[4] = test system: human APOE RNA; experiment: Activity in APOE C57BL/6NTac-Apoeem7250 knock-in mice, single ICV bolus, 16 weeks (Example 12); assay type: in vivo; details: single ICV bolus 300 μg, 16 weeks post treatment, normalized to mouse Ppia
Summary of the method: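 Knock-in mice (3-4 per group) received one ICV bolus of 300 μg oligonucleotide, PBS as control. After 16 weeks, human APOE RNA in cortex and spinal cord measured by RT-qPCR, normalized to mouse Ppia, and reported as % of PBS control.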

[5] = test system: human APOE RNA; experiment: Activity in APOE C57BL/6NTac-Apoeem7250 knock-in mice, single ICV bolus, 8 weeks (Example 11); assay type: in vivo; details: single ICV bolus 300 μg, 8 weeks post treatment, normalized to mouse Ppia
Summary of the method: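 Human APOE knock-in C57BL/6NTac mice given one ICV bolus of 300 μg oligonucleotide; PBS-dosed group as control. At 8 weeks, cortex and spinal cord RNA measured by qRT-PCR (human probe RTS3073), normalized to mouse Ppia, expressed as % of PBS control.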

[6] = test system: human APOE RNA; experiment: Activity in APOE 1549 knock-in mice, single ICV bolus, 2 weeks (Example 7); assay type: in vivo; details: single ICV bolus of 300 μg, two weeks post treatment
Method: Modified oligonucleotides described above were tested in APOE knock-in mice.
APOE knock-in mice (model 41549) were obtained from Taconic Biosciences. APOE knock-in mice were divided into groups of 2 mice each. Each mouse received a single intracerebroventricular (ICV) bolus of 300 μg of modified oligonucleotide. A group of 4 mice received a single ICV bolus with PBS as a negative control.
Two weeks post treatment, mice were sacrificed and RNA was extracted from cortical brain tissue and spinal cord for quantitative real-time RT-PCR analysis of RNA expression of APOE using primer probe set RTS3073 (described herein above). APOE RNA levels were normalized to mouse Ppia. Mouse Ppia was amplified using primer probe set m_cyclo24 (forward sequence TCGCCGCTTGCTGCA, designated herein as SEQ ID NO: 16; reverse sequence ATCGGCCGTGATGTCGA, designated herein as SEQ ID NO: 17; probe sequence […], designated herein as SEQ ID NO: 18). Results are presented as percent human APOE RNA relative to the amount of human APOE RNA in PBS treated animals, (% control). Each experiment is identified in separate tables below.

Row | Substance | IC50 [2] [nM] | APOE RNA (% UTC) ([2]; 5 nM) | APOE RNA (% UTC) ([2]; 13 nM) | APOE RNA (% UTC) ([2]; 33 nM) | APOE RNA (% UTC) ([2]; 82 nM) | APOE RNA (% UTC) ([2]; 205 nM) | APOE RNA (% UTC) ([2]; 512 nM) | APOE RNA (% UTC) ([2]; 1,280 nM) | APOE RNA (% UTC) ([2]; 3,200 nM) | APOE RNA (% UTC) ([2]; 8,000 nM) | APOE RNA (% UTC) ([2]; 20,000 nM) | APOE RNA (% control) Cortex ([6]; Table 16) [% control] | APOE RNA (% control) Spinal Cord ([6]; Table 16) [% control] | also measured
1 | 1736521: 6-10-4 MOE gapmer CTTGGTGAATCTTTATTAAA, linkages sosssszzzsssssssoss (e[5mC]*eTeT*eG*eG*eT*dG[ms]dA[ms]dA[ms]dT*d[5mC]*dT*dT*dT*dA*dT*eTeA*eA*eA) [compound 1736521] | 400 | 99 | 109 | 84 | 69 | 65 | 40 | 34 | 18 | 10 | 3 |  |  | APOE RNA (% control) Cortex ([1]; cortex): 52 % control; APOE RNA (% control) Spinal Cord ([1]; spinal cord): 50 % control
2 | 1652902: 6-10-4 MOE gapmer CTTGGTGAATCTTTATTAAA, linkages sooooossssssssssoss (antisense e[5mC]*eTeTeGeGeTdG*dA*dA*dT*d[5mC]*dT*dT*dT*dA*dT*eTeA*eA*eA) [compound 1652902] | 70 | 88 | 94 | 54 | 44 | 26 | 19 | 10 | 4 | 3 | 2 |  |  | APOE RNA (% control) Cortex ([3]; 14 days post-dose): 43 % control; APOE RNA (% control) Cortex ([3]; 112 days post-dose): 75 % control; APOE RNA (% control) Spinal Cord ([3]; 14 days post-dose): 27 % control; APOE RNA (% control) Spinal Cord ([3]; 112 days post-dose): 32 % control; APOE RNA (% control) Cortex ([4]; cortex): 105 % control; APOE RNA (% control) Spinal Cord ([4]; spinal cord): 60 % control; APOE RNA (% control) Cortex ([5]; cortex): 44 % control; APOE RNA (% control) Spinal Cord ([5]; spinal cord): 12 % control; APOE RNA (% control) Cortex ([6]; Table 17): 31 % control; APOE RNA (% control) Spinal Cord ([6]; Table 17): 171 % control
3 | 1601955: 6-10-4 MOE gapmer GCTAATTCAGTCCTCATTTT, linkages sooooossssssssssoss (antisense eG*e[5mC]eTeAeAeTdT*d[5mC]*dA*dG*dT*d[5mC]*d[5mC]*dT*d[5mC]*dA*eTeT*eT*eT) [compound 1601955] |  |  |  |  |  |  |  |  |  |  |  | 98 | 111 | 
4 | 1601957: 6-10-4 MOE gapmer TCCTCATTTTAAAGTTCTCC, linkages sooooossssssssssoss (antisense eT*e[5mC]e[5mC]eTe[5mC]eAdT*dT*dT*dT*dA*dA*dA*dG*dT*dT*e[5mC]eT*e[5mC]*e[5mC]) [compound 1601957] |  |  |  |  |  |  |  |  |  |  |  | 101 | 90 | 
5 | 1601949: 6-10-4 MOE gapmer CTGCAATGCATTAGAAACCT, linkages sooooossssssssssoss (antisense e[5mC]*eTeGe[5mC]eAeAdT*dG*d[5mC]*dA*dT*dT*dA*dG*dA*dA*eAe[5mC]*e[5mC]*eT) [compound 1601949] |  |  |  |  |  |  |  |  |  |  |  | 77 | 92 | 
